# Test results reported in PMC10518255, “A first-in-class pan-lysyl oxidase inhibitor impairs stromal remodeling and enhances gemcitabine response and survival in pancreatic cancer” (Nature Cancer, 2023).
# Several values for one entry are separate records, joined by “and”; a condition that tells them apart may be missing. Equal values may be shown once.
# Tested on: α-SMA
# Assay: Immunohistochemistry of end-point KPC tumors: myCAF marker
# Assay type: in vivo, mouse
# Conditions: for Percent coverage of aSMA positive staining: Extended Data 6B, KPC tumours at endpoint, individual FOV
# Method: All tissues or matrices, including patient TMAs, were fixed in 10% buffered formalin and embedded in paraffin. The 4-μm sections of samples were deparaffinized with xylene and rehydrated in graded ethanol washes. For immunohistochemistry, Bond Dewax Solution (AR9222) was used. Antigen retrieval was performed using Bond RX H2(30) protocol: HIER 30 min ER1 (citrate pH 6) OR ER2 (EDTA pH 9) at 100 °C. Slides were quenched in BOND Polymer Refine Detection (Leica Biosystems DS9800). […] Slides were digitized on an Aperio slide scanner and representative areas per tumor acquired and analyzed by researchers blinded to the conditions of the experiment.
# Extended Data Fig. 6 PXS-5505 in combination with gemcitabine in a KPC model. a. Quantification of proliferating cells (Ki67 positive nuclear staining) in KPC tumors at end point, treated as indicated. 5 fields of view (500 μm × 500 μm) per mouse and 10 mice per cohort were scored. […] Quantification of percent coverage of αSMA positive staining in KPC tumors at end point, treated as indicated. 3 fields of view (1000 μm × 1000 μm) per mouse and 10 mice per cohort were scored. […] Quantification of percent coverage of PDGFR-ß positive staining in KPC tumors at end point, treated as indicated. 3 fields of view (1000 μm × 1000 μm) per mouse and 10 mice per cohort were scored. […] Quantification of pMLC2 positive staining in stromal regions of KPC tumors at end point, treated as indicated. 3 fields of view (500 μm × 500 μm) per mouse and 10 mice per cohort were scored. […] Quantification of tumor vasculature (CD31 positive staining) in KPC tumors at end point, treated as indicated. 3 fields of view (1000 μm × 1000 μm) per mouse and 10 mice per cohort were scored. […] Quantification of STAT3 activation (pSTAT3 positive nuclear staining) in KPC tumors at end point, treated as indicated. 3 fields of view (1000 μm × 1000 μm) per mouse and 5 mice per cohort were scored. […] Scale bars = 100 μm. g Quantification of macrophage infiltration (F4/80 positive staining) in KPC tumors at end point, treated as indicated. […]
SMILES,Percent coverage of aSMA positive staining,α-SMA positivity (KPC tumors at end point)
"Nc1ccn([C@@H]2O[C@H](CO)[C@@H](O)C2(F)F)c(=O)n1 [Gem, gemcitabine]",4.1422% and 8.8428% and 3.9128% and 4.9851% and 3.7908% and 3.4102% and 13.5235% and 10.8353% and 9.6686% and 1.9907% and 2.1823% and 5.2926% and 3.0437% and 5.4036% and 4.2058% and 8.1217% and 4.3012% and 3.1567% and 3.0046% and 1.1246% and 5.0654% and 7.8034% and 8.097% and 1.0094% and 7.1387% and 7.3633% and 7.7939% and 1.1199% and 2.3003% and 3.6904%,small decreases in positivity
"Cl.Cl.NC/C=C(\F)CS(=O)(=O)c1cccc2cccnc12.O [PXS-5505, (Z)-3-fluoro-4-(quinolin-8-ylsulfonyl)but-2-en-1-amine dihydrochloride monohydrate]",3.0735% and 6.2874% and 6.4326% and 3.0495% and 2.5796% and 2.9175% and 6.2269% and 8.7759% and 5.9209% and 8.6578% and 7.7662% and 8.3469% and 5.6452% and 6.7775% and 4.6186% and 7.36% and 5.232% and 2.4577% and 4.7266% and 9.579% and 5.032% and 5.1635% and 4.6717% and 8.3034% and 3.41% and 6.5089% and 4.6457% and 1.885% and 5.2516% and 5.0893%,
